Data taken from ChEMBL document CHEMBL1159297, “Anguillosporal, a new antibacterial and antifungal metabolite from the freshwater fungus Anguillospora longissima” (1995).
Converted amounts (≈) assume the structure as drawn.

Legend:
Candida albicans = assay: Antifungal activity against Candida albicans ATCC 90029 by broth macrodilution method; type: functional
Staphylococcus aureus = assay: Antibacterial activity against Staphylococcus aureus ATCC 29213 by broth macrodilution method; type: functional

Q: What does the source list for `CCCCC(C)c1cc(O)c(CC)c(O)c1C=O` (configuration not stated) [ANGUILLOSPORAL]?
A: MIC (Candida albicans): 58 µg/mL (≈ 232 µM); MIC (Staphylococcus aureus): 4 µg/mL (≈ 16 µM)
